In ChEMBL document CHEMBL1681662, “A new structural alert for benzimidazoles: 2,6-dimethylphenyl substituents increase mutagenic potential and time-dependent CYP3A4 inhibition risk” (Bioorg Med Chem Lett, 2011):
Each block holds one compound with its values, some of them ahead of it. The source made the active and inactive calls. No cut-off for these calls is given here.

Assays:
Salmonella typhimurium [1] = test: Mutagenic activity in Salmonella Typhimurium TA98 assessed as fold increase in maximum revertant at 100 ug by Ames test; assay type: functional
Salmonella typhimurium [2] = test: Mutagenic activity in Salmonella Typhimurium TA98 assessed as fold increase in maximum revertant at 300 ug by Ames test in presence of S9 fraction; assay type: functional
Salmonella typhimurium [3] = test: Mutagenic activity in Salmonella Typhimurium TA100 assessed as fold increase in maximum revertant at 1000 ug by Ames test; assay type: functional
Salmonella typhimurium [4] = test: Mutagenic activity in Salmonella Typhimurium TA100 assessed as fold increase in maximum revertant at 1000 ug by Ames test in presence of S9 fraction; assay type: functional
Cytochrome P450 3A4 [5] = target: T1, Cytochrome P450 3A4 (Homo sapiens, UniProt P08684); test: Inhibition of CYP3A4; assay type: ADME
T1 sequence (P08684 whole entry): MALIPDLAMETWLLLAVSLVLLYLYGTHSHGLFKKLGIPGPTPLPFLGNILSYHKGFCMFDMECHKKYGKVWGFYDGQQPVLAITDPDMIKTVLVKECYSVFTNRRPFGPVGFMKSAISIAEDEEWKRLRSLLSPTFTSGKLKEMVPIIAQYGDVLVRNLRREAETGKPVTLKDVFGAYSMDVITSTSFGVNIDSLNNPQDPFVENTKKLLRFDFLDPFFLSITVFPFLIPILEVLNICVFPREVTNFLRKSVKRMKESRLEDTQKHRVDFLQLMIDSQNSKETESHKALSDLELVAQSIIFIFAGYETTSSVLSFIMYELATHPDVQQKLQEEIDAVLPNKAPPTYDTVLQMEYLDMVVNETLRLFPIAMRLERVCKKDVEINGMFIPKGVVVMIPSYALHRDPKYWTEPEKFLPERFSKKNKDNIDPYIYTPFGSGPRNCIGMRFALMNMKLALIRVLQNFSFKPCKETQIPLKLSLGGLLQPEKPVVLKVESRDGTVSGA

Cytochrome P450 3A4 [6] = target: T1, Cytochrome P450 3A4; test: Inhibition of CYP3A4 in human liver microsome measured after 30 mins preincubation in presence of NADPH; assay type: ADME, microsomes
[7] = Salmonella enterica subsp. enterica serovar Typhimurium

Structure (SMILES): O=C(O)CCc1cc(Cl)c(-c2nc3ccc(C(=O)Nc4ccc5ccccc5n4)cc3[nH]2)c(Cl)c1
- Activity (Salmonella typhimurium [1]; [7]): inactive
- Activity (Salmonella typhimurium [2]; [7]): inactive

Structure (SMILES): O=C(Nc1ccc2ccccc2n1)c1ccc2nc(-c3c(Cl)cc(CCCP(=O)(O)O)cc3Cl)[nH]c2c1
- Activity (Salmonella typhimurium [3]; [7]): inactive
- Activity (Salmonella typhimurium [4]; [7]): inactive

Structure (SMILES): Cc1cc(CCCP(=O)(O)O)cc(C)c1-c1nc2ccc(C(=O)Nc3ccc4ccccc4n3)cc2[nH]1
- fold change (FC) (Salmonella typhimurium [3]): 2.48
- fold change (FC) (Salmonella typhimurium [4]): 2

- IC50 (Cytochrome P450 3A4 [5]): > 50 µM
- IC50 (Cytochrome P450 3A4 [6]): > 50000 nM
Structure (SMILES): Cc1ccccc1-c1nc2ccc(C(=O)Nc3ccc4ccccc4n3)cc2[nH]1

Structure (SMILES): Cc1cc(CCC(=O)O)cc(C)c1-c1nc2ccc(C(=O)Nc3ccc4ccccc4n3)cc2[nH]1
- fold change (FC) (Salmonella typhimurium [1]): 5.86
- fold change (FC) (Salmonella typhimurium [2]): 14.57

- IC50 (Cytochrome P450 3A4 [5]): 7.3 µM
- IC50 (Cytochrome P450 3A4 [6]): 2700 nM
Structure (SMILES): Cc1cccc(C)c1-c1nc2ccc(C(=O)Nc3ccc4ccccc4n3)cc2[nH]1
